# Data reported in patent US20120064176A1, “COMPOSITION FOR PREVENTING AND TREATING FATTY LIVER” (National Chung Hsing University, priority 2008, published 2012).
# System: C57BL/6JNarl mice
# Assay: Hepatic triglycerides after 7 weeks of lactoferrin, chromium or lactoferrin+chromium in high-fat-diet mice
# Assay type: in vivo
# Conditions: 10 mice in each group
# Protocol: Male C57BL/6JNarl mice (n=70) fed with high fat diet (high-fat Rodent TestDiet, PMI International Inc., MO, USA; 67% of calories provided by fat), age 8 weeks, are randomly divided into the control group, the low-dose lactoferrin group (NZMP lactoferrin, New Zealand, 40 mg/kg BW/day), the high-dose lactoferrin group (80 mg/kg BW/day), the low-dose chromium group (CrCl3·6H2O, Sigma, Cr^+3 40 μg/kg BW/day), the high dose chromium group (Cr^+3 80 μg/kg BW/day), the low-dose lactoferrin+chromium group (lactoferrin 40 mg/kg BW/day+Cr^+3 40 μg/kg BW/day), and the high-dose lactoferrin+chromium group (lactoferrin 80 mg/kg BW/day+Cr^+3 80 μg/kg BW/day) (10 mice in each group). After supplementation for 7 weeks, the C57BL/6JNarl mice are sacrificed and their livers are harvested. Then, the level of hepatic triglycerides is analyzed. […] However, no significant difference between the other groups is found.
smiles,measurement,setting,value
"O.O.O.O.O.O.[Cl][Cr]([Cl])[Cl] [chromium, CrCl3·6H2O]","Hepatic triglycerides, High-dose",High-dose: lactoferrin 80 mg/kg BW/day and/or Cr+3 80 μg/kg BW/day,19.0 ± 5.7 μ mol/g liver
same,"Hepatic triglycerides, Low-dose",Low-dose: lactoferrin 40 mg/kg BW/day and/or Cr+3 40 μg/kg BW/day,18.4 ± 8.1 μ mol/g liver
